This note sets out measurements from patent publication US20220111019A1, “BRCA1 MODULATING COMPOUNDS, FORMULATIONS THEREOF, AND USES THEREOF” (VIRGINIA TECH INTELLECTUAL PROPERTIES, INC., priority 2018, published 2022).

Entries after “also recorded” stand apart in the source; their conditions may differ.

Series [1] deals with HCC1937 cells. Put plainly: MTS cell viability assay after H2O2 and/or ML364 treatment. Type of series: cell-based, human. Particulars: 1 mM H2O2 10 min, vs untreated cells. How it is done:
(§1) Cell viability and proliferation assays. To determine cellular viability, we used the CellTiter 96® AQueous One Solution Cell Proliferation Assay (MTS; Promega). HCC1937 were seeded (about 4000 cells per well) in a 96-well plate at 37° C. and 5% CO2 overnight. Following a 10-minute incubation with culture media containing 1 mM H2O2, cells were washed with PBS solution and further treated with 7 μM ML364 for 24 hours at 37° C. with 5% CO2. Control cells were cultured in media lacking H2O2 and/or ML364 during the same time period. Culture media and containing MTS reagent was added to each well. The titer plate was incubated 37° C. and 5% CO2 for 1-4 hours. Absorbance values were measured at 490 nm using iMark microplate reader (Bio-Rad). MTS was also used to determine cell growth following ML364 treatment. HCC1937 cells were plated (about 1500 cells per well) in a 96-well plate at 37° C. and 5% CO2 overnight. Cells were treated with DMSO and ML364 at the different doses (2.5 μM-80 μM). After 3 days of incubation, cell viability was measured using the MTS reagent. Cellular survival was calculated by dividing the absorbance of the treated groups by those of the untreated groups (DMSO). Values for the half-maximal inhibitory concentration (IC50) were obtained using Prism software package (GraphPad).
Targeting cancer cells that express mutated BRCA1. As described elsewhere herein, mutated BRCA1 can be fine-tuned in vitro. The application of this aspect of the techology to treat cancer cells was evaluated. Enhancing the activity of tumor suppressors in healthy cells can facilitate their growth and resilience. Conversely, treating cancer cells with drugs that limit DNA repair may lessen their survival. Poly(ADP-Ribose) Polymerase (PARP) inhibitors have been used to treat BRCA1-related cancers (25-28). A limited-repair paradigm approach was developed and used treated breast cancer cells (HCC1937 line) with the DUB inhibitor, ML364 (Axon Ligands™). […] The viability of treated cells and untreated cells was quantified using MTS assay measurements.
In general terms: Tetrazolium assays rely on reduction of a dye to a coloured formazan, in cell work by metabolically active cells.

The subject of series [2] is 8-Oxo-Guanine (8-Oxo-G) accumulation in HCC1937 cells. The experiment in a line: Immunofluorescence detection of 8-Oxo-Guanine DNA lesions. In kind it is cell-based, human. Particulars: for 8-Oxo-G accumulation in and around the nucleus: single treatment (ML364 in IC50 range or 1 mM H2O2 10 minutes). How it is done:
Fluorescence microscopy. The production of 8-Oxo-Guanine (8-Oxo-G) DNA lesions was detected by fluorescence imaging as previously described (10, 11). Briefly, HCC1937 cells (about 40,000 cells/chamber) were plated in an eight-chamber slide and incubated at 37° C. and 5% CO2 overnight. Cells were treated with complete culture media containing 1 mM H2O2 for 10-20 minutes to induce oxidative damage in the nucleus. Cells were then wash with 1× PBS and treated with ML364 (7 μM-9 μM) for up to 48 hours at 37° C. and 5% CO2. Control cells were cultured in media without H2O2 and ML364 during the same time period. Cells were washed with standard PBS solution and fixed with 4% paraformaldehyde (Electron Microscopy Sciences) for 15 minutes. The fixed cells were permiabilized by PBS solution containing 0.5% Triton X-100 (Sigma) for 10 minutes. After 1-hour blocking step with PBS supplemented with 10% normal goat serum (Jackson Immuno Research) and 0.2% Triton X-100, cells were incubated with anti-8-OxoG DNA Lesion (483.15; Santa Cruz Biotechnology) at 4° C. overnight. The 8-OxoG DNA lesions were detected with goat anti-mouse IgM-TR (Santa Cruz Biotechnology) and nuclei were stained with Hoechst 33342. An inverted fluorescence microscope (Zeiss Axio Vert.A1; Carl Zeiss Microscopy) was used to image the cells.
To determine the effect of ML364 on genomic stability, we performed immunofluorescent imaging on HCC1937 breast cancer cells to detect 8-Oxo-Guanine (8-Oxo-G) (FIG. 13C). The nuclear accumulation of 8-Oxo-G in cells indicates deficiencies in DNA damage repair (10, 11). Cells were treated with H2O2 to induce oxidative DNA damage. The ML364 drug was then administered to the cells in the IC50 range. The accumulation of 8-Oxo-G was detected using monoclonal antibodies against the substrate and fluorescently-labeled secondary antibodies. […] Under oxidative stress conditions, there was a minor degree of 8-Oxo-G detected in nuclear region following 10 minutes of treatment. […]

For a further series, the system named is mutated BRCA1. The experiment in a line: Western blot quantification of BRCA1 in lysates of treated HCC1937 cells. In kind it is cell-based, human. Conditions: HCC1937 cell lysates; for decrease in BRCA1 level: single treatment (ML364 or H2O2). How it is done: (§2) Cell lysate preparations. For whole cell lysate preparations, HCC1937 cells were treated by adding 1 mM H2O2 to the culture media for 10-20 minutes, while incubating cells at 37° C. and 5% CO2. Following each incubation time, cells were washed with 1× PBS (Sigma) to eliminate residual H2O2. The cells were then treated with 7 μM-9 μM ML364 (Axon Medchem) for up to 48 hours at 37° C. and 5% CO2. Control cells were cultured in media lacking H2O2 and/or ML364 during the same time period. Cells were collected and washed with ice-cold 1× PBS once followed by centrifugation at 500×g for 5 minutes. Cell pellets were lysed by resuspending the pellets in buffer solution containing 20 mM HEPES (pH 6.8), 150 mM NaCl, 2.5 mM CaCl2, 2.5 mM MgCl2, 1 mM EDTA, 2% Nonidet-P40 (NP40), 1% Nadeoxycholate, 2× protease inhibitors (Sigma), 1× phosphatase inhibitors (Sigma), and 8% glycerol. The lysis mixture was incubated on ice for 30 minutes and centrifuged at 21,000×g for 15 minutes at 4° C. The supernatants were collected and protein concentrations were quantified using the standard Pierce Bradford assay.
(§3) SDS-Page, immunoblotting, and densitometry measurements. Protein fractions were also analyzed by SDS-PAGE denaturing gels followed by staining with SimplyBlue SafeStain solution (Invitrogen) or Western blotting as previously described (10). For Western blot analysis, the following primary antibodies were used: BRCA1 (C-20; Santa Cruz Biotechnology, sc-642), ubiquitin-pAb (Enzo Life Sciences, ADI-SPA-200), p53 (DO-1; Santa Cruz Biotechnology, sc-126), K63-linkage specific polyubiquitin (D7A11; Cell Signaling, #5621) and p-actin (Sigma-Aldrich, A5441). Western blot quantification was performed using Image Labrm Software (Bio-Rad). The intensity of each band was selected using the volume tool. Local subtraction and linear regression methods were implemented to eliminate the local background values and to quantify the band intensities.

Another series relates to p53R306. The experiment in a line: Western blot quantification of p53 in lysates of treated HCC1937 cells. Type of series: cell-based, human. Particulars: HCC1937 cell lysates; for decrease in p53 level: single treatment (ML364 or H2O2). How it is done: as §2, §3
The test system of the next series is BARD1. Particulars: HCC70 cells, 1 mM H2O2, replicate experiments. How it is done: (§4) Authentication of cells, cell culture, and protein enrichment. Breast cancer cells (HCC70 and HCC1937 lines) used in this study were purchased from the American Type Culture Collection (ATCC) and independently characterized by ATCC as being triple negative primary ductal carcinoma cells. For all experiments, cells were promptly used within 6 months of resuscitation. Cells were cultured in RPMI-1640 (Mediatech) supplemented with 10% fetal bovine serum (ATCC) and 0.5× penicillin-streptomycin (Thermo Fisher) at 37° C. and 5% CO2 environment. BRCA1-BARD1 complexes were enriched as previously described (25). Briefly, about 1,000,000 cells were collected using Trypsin-EDTA (Thermo Fisher) followed by centrifugation (500×g, 5 minutes). For experiments involving hydrogen peroxide (H2O2), cells were collected with cell scrapers after treated with 1 mM of H2O2 (Sigma Aldrich) for 40 minutes at 37° C. and 5% CO2. Sub-cellular fractions (cytoplasmic and nuclear) were separated using the NE-PER kit (Thermo Scientific). The soluble nuclear material was incubated with Ni-NTA agarose beads (Qiagen) and incubated with rotation for 1 hour at 4° C. The beads were washed with five bed volumes of 20 mM HEPES buffer (pH 7.2, 140 mM NaCl, 2 mM CaCl2, 2 mM MgCl2 and 5 mM imidazole).

The subject of a further series is BRCA1. Conditions: HCC70 cells, 1 mM H2O2, replicate experiments. How it is done:
as §4

For series [3], the system named is HCC1937 cells. Put plainly: MTS cell growth assay after ML364 treatment (IC50). In kind it is cell-based, human. Particulars: 3 days of incubation, doses 2.5 μM-80 μM, read-out: half maximal inhibitory concentration (IC50) range. How it is done:
as §1, with “Cells were treated with DMSO and ML364 at the different doses (2.5 μM-80 μM).” left out, “Values for the half-maximal inhibitory concentration (IC50) were obtained using Prism software package (GraphPad).” left out
Targeting cancer cells that express mutated BRCA1. […] The application of this aspect of the techology to treat cancer cells was evaluated. […] The viability of treated cells and untreated cells was quantified using MTS assay measurements.

A further series has as its system p53. The experiment in a line: Ubiquitin ligase assay in T98G nuclear extracts. Particulars: T98G nuclear reaction mixtures, 37° C., 1 hour, vs control samples. Type of series: biochemical, human. How it is done:
Ubiquitin ligase assay. Aliquots of DUB-treated or “restored” BRCA1-BARD1 (0.2 mg/ml) were incubated with 10 μM ML364 (USP2 inhibitor) at 37° C. for 1 hour to halt USP2 activity. Samples were then stored overnight at 4° C. The restored BRCA1-BARD1 fractions were added in varying amounts to soluble nuclear extracts prepared from T98G cells. T98G cells naturally produced low levels of BRCA1. Control samples lacked restored BRCA1-BARD1. The reaction mixtures were incubated in a water bath at 37° C. for 1 hour.
Wild-type p53-caught in the act of repair. The extent to which restored BRCA1 could enhance the ubiquitin ligase activity of cells with inherently low levels of BRCA1 (T98G line) (FIGS. 16A-16C) was evaluated. Quantities of restored BRCA1-BARD1 were added to nuclear reaction mixtures prepared from T98G cells, and changes in ubiquitination were assessed over multiple experiments (FIG. 12A). To simplify the results, modifications to the p53 monomer was first evaluated. According to Western blots, full-length p53 migrated at about 50 kDa while ubiquitnated monomers migrated close to about 68 kDa (FIGS. 12B and 16A-16C). Proteins receiving K63-linked ubiquitin adducts are often involved in autophagy and DNA repair (22), (23), (24). […] As the T98G cells naturally produced little BRCA1, we attributed the increase in ubiquitin ligase activity to the restored BRCA1-BARD1 supplement.

In the case of `OO` [H2O2, hydrogen peroxide], the cytotoxicity at 1000 µM with HCC1937 cells [1] (Homo sapiens, ML364 and H2O2 given separately, 7 μM ML364 24 hours, read-out: decrease in viability) is approximately 50%. In series [2], the “8-Oxo-G accumulation in and around the nucleus” value is “minor degree”. For the same molecule, the “decrease in BRCA1 level” value is 15-20% in the series on mutated BRCA1 and 10-20% with BRCA1. The “decrease in p53 level” value with p53R306 is on record as 15-20%. In the series on BARD1, the “decrease in BARD1 level” value is listed as 10-20%.
Consider `Cc1ccc(S(=O)(=O)Nc2cc(C(F)(F)F)ccc2C(=O)Nc2nc(-c3ccccc3)cs2)cc1` [ML364], for which the IC50 in the series on HCC1937 cells [3] fell in the range of 7 to 10 µM. In addition, the “decline in viability, combined treatment” value in the series on HCC1937 cells [1] (then 7 μM ML364 24 hours) was “about 70%”. Further, the decrease in viability result in the series on HCC1937 cells [1] (ML364 and H2O2 given separately, 7 μM ML364 24 hours) is “about 50%”. In series [2] (1 mM H2O2 then ML364 in IC50 range, up to 48 hours), the “8-Oxo-G accumulation, combination of H2O2 and ML364” value is “greatest 8-Oxo-G buildup; also recorded: greatest degree; also recorded: higher level”. Moreover, the “8-Oxo-G accumulation in and around the nucleus” value in series [2] is reported as “more abundant; also recorded: higher level”. The “decline in BRCA1 level, combination of H2O2 and ML364” value in the series with mutated BRCA1 (H2O2 then ML364) is reported as “about 50%”. In the series on mutated BRCA1, the “decrease in BRCA1 level” value was “about 30%”. Besides, in the series with p53R306 (H2O2 then ML364), the “decline in p53 level, combination of H2O2 and ML364” value is listed as “about 50%”. Moreover, in the series on p53R306, the “decrease in p53 level” value was “about 30%”.
On to “wild-type BRCA1-BARD1: wild type BRCA1-BARD1 heterodimer used as supplement for comparison”, for which, in the series on p53, the “increase in K63-type ubiquitin adducts on p53 (ubiquitination of p53)” value was “about 24%”.
